According to the supplement of paper PMC10331698:
± gives the standard deviation of the averaged measurements.

Experiments:
Test in all cases: level (log10 ratio to DMSO vehicle control); higher = higher biomarker level / cell amount than vehicle control
Conditions in all cases: in DMSO
[1] = compound: CCN(CCO)S(=O)(=O)C(F)(F)C(F)(F)C(F)(F)C(F)(F)C(F)(F)C(F)(F)C(F)(F)C(F)(F)F [N-Ethyl-N-(2-hydroxyethyl)perfluorooctanesulfonamide]
Description: (§1)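 BioMAP Diversity Plus panel of 12 human primary cell co-culture systems (3C, 4H, LPS, SAg, BT, BF4T, BE3C, CASM3C, HDF3CGF, KF3CT, MyoF, Mphg). Compounds were added 1 h before stimulation and left for 24 h (MyoF 48 h; BT 72 h for soluble read-outs or 6 d for IgG). Biomarkers were read by ELISA, cytotoxicity by SRB, PBMC viability and proliferation by Alamar Blue. Each well value was divided by the mean of 8 DMSO control wells on the same plate and log10 transformed; duplicate blinded samples were tested at 4 concentrations.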

Perfluorobutanoic acid = compound: O=C(O)C(F)(F)C(F)(F)C(F)(F)F [Perfluorobutanoic acid]
Description: as §1

[2] = compound: OCC(F)(F)OC(F)(F)C(F)(F)OC(F)(F)CO [1H,1H,8H,8H-Perfluoro-3,6-dioxaoctane-1,8-diol]
Description: as §1

[3] = compound: NCC(F)(F)C(F)(F)C(F)(F)C(F)(F)C(F)(F)C(F)(F)C(F)(F)F [1H,1H-Perfluorooctylamine]
Description: as §1

[4] = compound: O=C(O)C(F)(F)OC(F)(F)C(F)(F)OC(F)(F)C(=O)O [Perfluoro-3,6-dioxaoctane-1,8-dioic acid]
Description: as §1

Perfluoropropanoic acid = compound: O=C(O)C(F)(F)C(F)(F)F [Perfluoropropanoic acid]
Description: as §1

[5] = compound: C=CC(F)(F)C(F)(F)C(F)(F)C(F)(F)C(F)(F)C(F)(F)C(F)(F)C(F)(F)C=C [1,8-Divinylperfluorooctane]
Description: as §1

Test System	level (log10) ([1]; 6700 nM)	level (log10) ([1]; 20000 nM)	level (log10) (Perfluorobutanoic acid; 6700 nM)	level (log10) (Perfluorobutanoic acid; 20000 nM)	level (log10) (Perfluorobutanoic acid; 60000 nM)	level (log10) ([2]; 6700 nM)	level (log10) ([2]; 20000 nM)	level (log10) ([2]; 60000 nM)	level (log10) ([3]; 6700 nM)	level (log10) ([3]; 20000 nM)	level (log10) ([3]; 60000 nM)	level (log10) ([4]; 6700 nM)	level (log10) ([4]; 20000 nM)	level (log10) ([4]; 60000 nM)	level (log10) (Perfluoropropanoic acid; 6700 nM)	level (log10) (Perfluoropropanoic acid; 20000 nM)	level (log10) (Perfluoropropanoic acid; 60000 nM)	level (log10) ([5]; 6700 nM)	level (log10) ([5]; 20000 nM)
3C:CCL2/MCP-1	-0.032 ± 0.016	-0.145 ± 0.032	0.007 ± 0.0071	0.0075 ± 0.011	0.028 ± 0.025	0.0005 ± 0.018	0.009 ± 0.0028	0.0145 ± 0.05	-0.003 ± 0.0099	0.0095 ± 0.021	0.0275 ± 0.028	0.002 ± 0.016	-0.007 ± 0.023	0.01 ± 0.03	-0.041 ± 0.048	-0.0145 ± 0.049	0.0435 ± 0.073	-0.0055 ± 0.0021	0.031 ± 0.025
3C:CD54/ICAM-1	0.03 ± 0.013	0.075 ± 0.065	-0.0185 ± 0.019	-0.029 ± 0.017	-0.03 ± 0.024	-0.0015 ± 0.016	-0.0005 ± 0.0064	-0.0035 ± 0.011	-0.0105 ± 0.028	-0.0125 ± 0.039	-0.015 ± 0.025	-0.0005 ± 0.0092	-0.019 ± 0.0085	-0.0135 ± 0.0035	-0.0365 ± 0.012	-0.0085 ± 0.0064	0.017 ± 0.02	-0.0005 ± 0.0064	0.0095 ± 0.0021
3C:CD62E/E-Selectin	0.0685 ± 0.012	0.068 ± 0.0057	-0.0155 ± 0.011	0.0075 ± 0.012	-0.0185 ± 0.0035	0.0085 ± 0.0035	0.003	-0.003 ± 0.0085	-0.0045 ± 0.047	0.022 ± 0.02	0.0335 ± 0.011	0.0015 ± 0.029	-0.0185 ± 0.0092	-0.005 ± 0.02	-0.01 ± 0.013	-0.005 ± 0.0085	0.0105 ± 0.013	-0.0305 ± 0.025	-0.014 ± 0.024
3C:CD106/VCAM-1	0.0005 ± 0.005	0.005 ± 0.0085	-0.002 ± 0.0028	-0.009 ± 0.0071	-0.0225 ± 0.011	-0.0365 ± 0.021	-0.0295 ± 0.019	-0.016 ± 0.024	-0.0035 ± 0.00071	-0.016 ± 0.0057	-0.005 ± 0.0099	0.0105 ± 0.016	-0.002 ± 0.02	0.0015 ± 0.0064	-0.025 ± 0.0014	-0.0145 ± 0.005	0.004 ± 0.0014	-0.018 ± 0.017	-0.003 ± 0.011
3C:CD141/Thrombomodulin	0.046 ± 0.03	0.261 ± 0.14	-0.0095 ± 0.026	-0.0105 ± 0.026	-0.0105 ± 0.04	-0.003 ± 0.013	-0.0075 ± 0.015	0.01 ± 0.0085	-0.036 ± 0.033	-0.0295 ± 0.033	-0.0385 ± 0.039	-0.0265 ± 0.036	-0.0065 ± 0.023	0.0095 ± 0.028	-0.016 ± 0.031	0.011 ± 0.021	0.0155 ± 0.0035	-0.0215 ± 0.022	-0.0055 ± 0.023
3C:CD142/Tissue Factor	0.0825 ± 0.036	0.235 ± 0.059	0.011 ± 0.0042	0.0085 ± 0.021	0.0035 ± 0.043	0.0175 ± 0.0064	0.011 ± 0.021	-0.0045 ± 0.0035	-0.0275 ± 0.00071	-0.0105 ± 0.00071	-0.0255 ± 0.011	-0.004 ± 0.042	-0.0155 ± 0.013	-0.0025 ± 0.059	-0.008 ± 0.018	-0.015 ± 0.0085	0.0065 ± 0.0035	-0.068 ± 0.041	-0.0205 ± 0.061
BE3C:Keratin 8/18	0 ± 0.014	-0.007 ± 0.014	-0.005 ± 0.017	0.003 ± 0.0071	-0.0195 ± 0.016	-0.0105 ± 0.0078	-0.003 ± 0.016	-0.0085 ± 0.013	-0.009 ± 0.0071	-0.024 ± 0.0099	-0.0005 ± 0.0078	-0.0105 ± 0.0092	-0.004 ± 0.0014	0.0005 ± 0.022	-0.0185 ± 0.0064	-0.016 ± 0.028	0.017 ± 0.023	0.0015 ± 0.005	-0.0165 ± 0.005
BE3C:MMP-1	0.255 ± 0.03	0.328 ± 0.0071	-0.004 ± 0.034	-0.0075 ± 0.013	0.021 ± 0.014	0.0105 ± 0.011	-0.013 ± 0.021	0.009 ± 0.052	-0.0305 ± 0.042	-0.0235 ± 0.026	-0.001 ± 0.04	-0.0085 ± 0.029	-0.023 ± 0.047	0.011 ± 0.025	-0.02 ± 0.041	0.001 ± 0.0014	0.03 ± 0.064	0.0095 ± 0.069	0.0345 ± 0.0092
BE3C:MMP-9	0.018 ± 0.0071	-0.0535 ± 0.04	-0.0075 ± 0.021	-0.007 ± 0.035	-0.0145 ± 0.015	-0.0115 ± 0.028	0.02 ± 0.04	-0.006 ± 0.013	0.001 ± 0.023	-0.0105 ± 0.032	0.005 ± 0.048	-0.0115 ± 0.0078	-0.0035 ± 0.028	0.0385 ± 0.00071	0.0075 ± 0.025	0.0025 ± 0.018	0.0265 ± 0.012	-0.0165 ± 0.011	-0.0165 ± 0.012
BE3C:PAI-I	-0.066 ± 0.0071	-0.092 ± 0.017	-0.011 ± 0.011	-0.025 ± 0.023	-0.0085 ± 0.0035	-0.0105 ± 0.005	-0.0235 ± 0.0092	0.01 ± 0.021	-0.0075 ± 0.028	-0.008 ± 0.014	-0.002 ± 0.04	-0.013 ± 0.0042	-0.0105 ± 0.019	0.0065 ± 0.022	-0.029 ± 0.045	-0.0065 ± 0.057	0.017 ± 0.052	0.016 ± 0.017	0.016 ± 0.016
BE3C:SRB	-0.0175 ± 0.011	-0.04 ± 0.0071	-0.009 ± 0.011	0 ± 0.0042	-0.0005 ± 0.011	-0.005 ± 0.0085	-0.0015 ± 0.0064	-0.0045 ± 0.012	0	0.0035 ± 0.00071	0.013 ± 0.024	-0.0005 ± 0.0021	-0.0035 ± 0.0021	0.0025 ± 0.011	-0.0015 ± 0.0021	-0.003	0.0035 ± 0.00071	-0.0005 ± 0.00071	0 ± 0.0014
BE3C:tPA	0.142 ± 0.0099	-0.036 ± 0.058	-0.025 ± 0.025	-0.025 ± 0.04	-0.037 ± 0.0099	-0.014 ± 0.021	-0.0255 ± 0.03	-0.0225 ± 0.00071	-0.035 ± 0.016	-0.001 ± 0.034	-0.0145 ± 0.028	-0.014 ± 0.018	-0.0135 ± 0.0035	-0.0015 ± 0.0021	-0.016 ± 0.0042	-0.028 ± 0.028	0 ± 0.0014	-0.0145 ± 0.0021	-0.0015 ± 0.015
BE3C:uPA	-0.0025 ± 0.022	-0.018 ± 0.031	-0.0065 ± 0.026	-0.007 ± 0.011	-0.015 ± 0.014	-0.01 ± 0.0042	0 ± 0.037	-0.016 ± 0.0057	-0.011 ± 0.011	-0.0135 ± 0.0021	-0.002 ± 0.014	-0.0145 ± 0.005	-0.013 ± 0.014	-0.0025 ± 0.0064	-0.0165 ± 0.044	0.0015 ± 0.044	0.003 ± 0.041	-0.0245 ± 0.0064	-0.0315 ± 0.0078
CASM3C:CCL2/MCP-1	0.003 ± 0.017	-0.017 ± 0.0057	-0.0125 ± 0.0078	-0.025 ± 0.027	-0.001 ± 0.041	-0.026 ± 0.041	-0.022 ± 0.017	-0.017 ± 0.013	-0.0145 ± 0.044	-0.0245 ± 0.0092	0.009 ± 0.04	-0.033 ± 0.037	-0.034 ± 0.027	0.021 ± 0.02	0.0025 ± 0.012	-0.0025 ± 0.019	0.0055 ± 0.00071	-0.0225 ± 0.0078	0.002 ± 0.014
CASM3C:CD87/uPAR	-0.0595 ± 0.0092	-0.09 ± 0.038	-0.005 ± 0.013	0.0095 ± 0.0021	-0.0085 ± 0.026	0.0135 ± 0.00071	-0.0085 ± 0.0078	-0.016 ± 0.0085	-0.044 ± 0.083	-0.0315 ± 0.043	0.025 ± 0.047	-0.023 ± 0.03	-0.023 ± 0.018	-0.0255 ± 0.00071	-0.0215 ± 0.019	-0.008 ± 0.038	0.001 ± 0.013	-0.002 ± 0.014	0.0175 ± 0.0035
